Laboratory results: patent US20180291335A1, “MODIFIED POLYNUCLEOTIDES FOR ALTERING CELL PHENOTYPE” (ModernaTX, Inc., priority 2012, published 2018)

Tests used:
HeLa cells [1] = assay: Luciferase in HeLa cells using a combination of modifications; format: cell-based, human; conditions: 83 ng luciferase modified RNA, 18 to 22 hours
Experimental: To evaluate using of 2′fluoro-modified mRNA in combination with other modification a series of mRNA were transcribed using either wild-type T7 polymerase (non-fluoro-containing compounds) or using mutant T7 polymerases (fluyoro-containing compounds) as described in Example 86. All modified mRNA were tested by in vitro transfection in HeLa cells.
The day before transfection, 20,000 HeLa cells (ATCC no. CCL-2; Manassas, Va.) were harvested by treatment with Trypsin-EDTA solution (LifeTechnologies, Grand Island, N.Y.) and seeded in a total volume of 100 ul EMEM medium (supplemented with 10% FCS and 1× Glutamax) per well in a 96-well cell culture plate (Corning, Manassas, Va.). The cells were grown at […] in 5% CO2 atmosphere overnight. […] Lipofectamine 2000 (LifeTechnologies, Grand Island, N.Y.) was used as transfection reagent and 0.2 ul were diluted in 10 ul final volume of OPTI-MEM. After 5 minutes of incubation at room temperature, both solutions were combined and incubated an additional 15 minute at room temperature. Then the 20 ul combined solution was added to the 100 ul cell culture medium containing the HeLa cells and incubated at room temperature.
After 18 to 22 hours of incubation cells expressing luciferase were lysed with 100 ul of Passive Lysis Buffer (Promega, Madison, Wis.) according to manufacturer instructions. Aliquots of the lysates were transferred to white opaque polystyrene 96-well plates (Corning, Manassas, Va.) and combined with 100 ul complete luciferase assay solution (Promega, Madison, Wis.). The lysate volumes were adjusted or diluted until no more than 2 mio relative light units (RLU) per well were detected for the strongest signal producing samples and the RLUs for each chemistry tested are shown in Table 26. The plate reader was a BioTek Synergy H1 (BioTek, Winooski, Vt.). The background signal of the plates without reagent was about 200 relative light units per well.

[2] = system: Rabbit Reticulocyte Lysate; assay: 2′Fluoro luciferase mRNA in rabbit reticulocyte lysate assay; format: biochemical; conditions: Rabbit reticulysates, 250 ng luciferase mRNA, 60 minutes
Experimental: For the rabbit reticulocyte lysate assay, 2′-fluoro-containing luciferase mRNA were diluted in sterile nuclease-free water to a final amount of 250 ng in 10 ul and added to 40 ul of freshly prepared Rabbit Reticulocyte Lysate and the in vitro translation reaction was done in a standard 1.5 mL polypropylene reaction tube (Thermo Fisher Scientific, Waltham, Mass.) at 30° C. in a dry heating block. The translation assay was done with the Rabbit Reticulocyte Lysate (nuclease-treated) kit (Promega, Madison, Wis.) according to the manufacturer's instructions. The reaction buffer was supplemented with a one-to-one blend of provided amino acid stock solutions devoid of either Leucine or Methionine resulting in a reaction mix containing sufficient amounts of both amino acids to allow effective in vitro translation. […]
Aliquots of the in vitro translation reaction containing luciferase modified RNA were transferred to white opaque polystyrene 96-well plates (Corning, Manassas, Va.) and combined with 100 ul complete luciferase assay solution (Promega, Madison, Wis.). The volumes of the in vitro translation reactions were adjusted or diluted until no more than 2 mio relative light units (RLUs) per well were detected for the strongest signal producing samples and the RLUs for each chemistry tested are shown in Tables 24 and 25. The plate reader was a BioTek Synergy H1 (BioTek, Winooski, Vt.). […]

HeLa cells [3] = assay: G-CSF modified mRNA transfected in HeLa cells, G-CSF ELISA; format: cell-based, human; conditions: HeLa cells, ELISA
Method in brief: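 G-CSF ELISA readout after 250 ng of chemically modified human G-CSF mRNA (transcribed by mutant T7 polymerase) was added to rabbit reticulocyte lysate or transfected in vitro into HeLa cells.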

Balb-C mice [4] = assay: In vivo screening of luciferase modified mRNA, whole-body bioluminescence; conditions: subcutaneous; for Luciferase expression (photon/second): 42 to 103 ug mRNA in 1×PBS, imaged 8 hours after dosing, total flux of entire mouse
Experimental: (§1) A control of PBS was also tested. The dosages of the modified luciferase mRNA is also outlined in Table 22. 8 hours after dosing the mice were imaged to determine luciferase expression. Twenty minutes prior to imaging, mice were injected intraperitoneally with a D-luciferin solution at 150 mg/kg. Animals were then anesthetized and images were acquired with an IVIS Lumina II imaging system (Perkin Elmer). Bioluminescence was measured as total flux (photons/second) of the entire mouse.

HeLa cells [5] = assay: 2′Fluoro luciferase mRNA transfection in HeLa cells; format: cell-based, human; conditions: 83 ng 2′fluoro-containing luciferase RNA, 18 to 22 hours
Experimental: The 2′Fluoro-modified mRNA were then transfected into HeLa cells to assess protein production in a cell context and the same mRNA were also assessed in a cell-free rabbit reticulocyte system. A control of unmodified luciferase (natural luciferase) was used for both transcription experiments, a control of untreated and mock transfected (Lipofectamine 2000 alone) were also analyzed for the HeLa transfection and a control of no RNA was analyzed for the rabbit reticulysates.
For the HeLa transfection experiments, the day before transfection, 20,000 HeLa cells (ATCC no. CCL-2; Manassas, Va.) were harvested by treatment with Trypsin-EDTA solution (LifeTechnologies, Grand Island, N.Y.) and seeded in a total volume of 100 ul EMEM medium (supplemented with 10% FCS and 1× Glutamax) per well in a 96-well cell culture plate (Corning, Manassas, Va.). The cells were grown at […] in 5% CO2 atmosphere overnight. […] Lipofectamine 2000 (LifeTechnologies, Grand Island, N.Y.) was used as transfection reagent and 0.2 ul were diluted in 10 ul final volume of OPTI-MEM. […] The lysate volumes were adjusted or diluted until no more than 2 mio relative light units (RLU) per well were detected for the strongest signal producing samples and the RLUs for each chemistry tested are shown in Table 24. The plate reader was a BioTek Synergy H1 (BioTek, Winooski, Vt.). […]

Balb-C mice [6] = assay: In vivo screening of combination luciferase modified mRNA, whole-body bioluminescence; conditions: subcutaneous, 100 ug mRNA in 1×PBS, imaged 8 hours after dosing
Experimental: as §1

[7] = system: peripheral blood mononuclear cells (PBMC); assay: In vitro screening in PBMC: G-CSF protein expression by ELISA; format: cell-based, human
Method in brief: (§2)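 Cells' supernatant is taken off and frozen. Cytokine and G-CSF output is then determined by enzyme-linked immunosorbent assay.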

[8] = system: tumor necrosis factor alpha (TNF-α); assay: In vitro screening in PBMC: tumor necrosis factor alpha induction by ELISA; format: cell-based, human
Method in brief: as §2

[9] = system: human embryonic kidney 293 (HEK293) cells; assay: Cytotoxicity of NTPs, CYTO TOX-GLO assay; format: cell-based
Experimental: The cytotoxicity of natural and modified nucleoside triphosphates (NTPs) alone or in combination with other bases, was analyzed in human embryonic kidney 293 (HEK293) cells in the absence of transfection reagent. […] 10 ul of the NTPs outlined in Table 12 were combined with 10 ul of lipid dilution and incubated for 30 minutes to form a complex before 80 ul of the HEK293 cell suspension was added to the NTP complex.
Natural and modified NTPs were transfected at a concentration of 2.1 nM, 21 nM, 210 nM, 2.1 um, 21 uM, 210 um or 2.1 mM. NTPs in combination were transfected at a total concentration of NTPs of 8.4 nM, 84 nM, 840 nM, 8.4 uM, 84 uM, 840 uM and 8.4 mM. […] The cytotoxicity of the NTPs and the modified G-CSF mRNA was assayed at 4, 24, 48 and 72 hours post addition to the HEK293 cells using a CYTO TOX-GLO™ assay from Promega (Madison, Wis.) following the manufacturer protocol except pippeting was used for lysing the cells instead of shaking the plates.

[10] = system: Rabbit Reticulocyte Lysate; assay: In vitro screening in rabbit reticulocyte lysates, luciferase mRNA translation; format: biochemical; conditions: 250 ng luciferase mRNA, 60 minutes, 30° C.
Experimental: The diluted luciferase was added to 40 ul of freshly prepared Rabbit Reticulocyte Lysate and the in vitro translation reaction was done in a standard 1.5 mL polypropylene reaction tube (Thermo Fisher Scientific, Waltham, Mass.) at 30° C. in a dry heating block. The translation assay was done with the Rabbit Reticulocyte Lysate (nuclease-treated) kit (Promega, Madison, Wis.) according to the manufacturer's instructions. The reaction buffer was supplemented with a one-to-one blend of provided amino acid stock solutions devoid of either Leucine or Methionine resulting in a reaction mix containing sufficient amounts of both amino acids to allow effective in vitro translation.
After 60 minutes of incubation, the reaction was stopped by placing the reaction tubes on ice. Aliquots of the in vitro translation reaction containing luciferase modified RNA were transferred to white opaque polystyrene 96-well plates (Corning, Manassas, Va.) and combined with 100 ul complete luciferase assay solution (Promega, Madison, Wis.). The volumes of the in vitro translation reactions were adjusted or diluted until no more than 2 mio relative light units (RLUs) per well were detected for the strongest signal producing samples and the RLUs for each chemistry tested are shown in Table 20. The plate reader was a BioTek Synergy H1 (BioTek, Winooski, Vt.). The background signal of the plates without reagent was about 200 relative light units per well.

rabbit reticulysates = assay: G-CSF modified mRNA in rabbit reticulysates, G-CSF ELISA; format: biochemical; conditions: 250 ng of modified mRNA
Experimental: To assess the activity of all our different chemical modifications in the context of a second open reading frame, we replicated experiments previously conducted using luciferase mRNA, with human G-CSF mRNA. […] The mutant T7 polymerase was obtained commercially (Durascribe® T7 Transcription kit (Cat. No. DS010925) (Epicentre®, Madison, Wis.).
The modified RNA in Tables 27 and 28 were transfected in vitro in HeLa cells or added to rabbit reticulysates (250 ng of modified mRNA) as indicated. […] In Table 27, “NT” means not tested.

HeLa cells [11] = assay: In vitro screening in HeLa cells, luciferase modified RNA; format: cell-based, human; conditions: HeLa cells, 83 ng luciferase modified RNA, 18 to 22 hours
interferon-alpha (IFN-α) = assay: In vitro screening in PBMC: interferon-alpha induction by ELISA; format: cell-based, human
Method in brief: as §2

[12] = PBMC Donor 1, 500 ng G-CSF mRNA
[13] = PBMC Donor 2, 500 ng G-CSF mRNA
[14] = PBMC Donor 3, 500 ng G-CSF mRNA

2′-flurorouridine: Luciferase mRNA (SEQ ID NO: 409) fully modified with 2′-fluorouridine
RLU (HeLa cells [1]): 305 RLU
RLU [2]: 258 RLU
G-CSF protein (pg/ml) HeLa cells (HeLa cells [3]; combination chemistries): 0 pg/mL
Luciferase expression (photon/second) (Balb-C mice [4]): 3.47E+05 photon/second
in vivo activity (Balb-C mice [4]; luciferase mRNA, result in words): exception
RLU (HeLa cells [5]): 6767.5 RLU

5-methylcytidine/where 50% of the uridine is replaced with 2-thiouridine: Luciferase mRNA (SEQ ID NO: 409) with 5-methylcytidine and 50% of the uridine replaced with 2-thiouridine
RLU (HeLa cells [1]): 41,601 RLU
Luciferase expression (photon/second) (Balb-C mice [6]): 2.39E+06 photon/second

O=c1[nH]cc([C@@H]2O[C@H](CO)[C@@H](O)[C@H]2O)c(=O)[nH]1 [Pseudouridine]
G-CSF Protein Expression [7, 12]: 2477 pg/mL
G-CSF Protein Expression [7, 13]: 1,909 pg/ml
G-CSF Protein Expression [7, 14]: 1,498 pg/ml
TNF-α Expression [8, 12]: 36 pg/mL
TNF-α Expression [8, 13]: 81 pg/mL
TNF-α Expression [8, 14]: 126 pg/mL
G-CSF protein (pg/ml) HeLa cells (HeLa cells [3]; G-CSF mRNA): 1,150,909 pg/ml
toxicity as compared to the untreated cells [9]: not toxic
RLU [10]: 587,795 RLU
G-CSF protein (pg/ml) Rabbit reticulysates cells (rabbit reticulysates): 147,875 pg/ml
RLU (HeLa cells [11]): 655,632 RLU
Luciferase expression (photon/second) (Balb-C mice [4]): 1.36E+07 photon/second
IFN-α Expression (interferon-alpha (IFN-α); [12]): 120 pg/mL
IFN-α Expression (interferon-alpha (IFN-α); [13]): 77 pg/mL
IFN-α Expression (interferon-alpha (IFN-α); [14]): 171 pg/mL
cytokine induction (interferon-alpha (IFN-α); PBMC, G-CSF mRNA, result in words): detectable cytokine induction which is above background
